One data set relates to A431 Skin SCC cells. As to the kind of experiment: XTT cell viability assay, A431. Format: cell-based, human. The following applies: Cell line/XTT, 72 hr. Here is the method:
A431 (human skin SCC), HT-297.T (human AK), and HaCaT transformed normal keratinocyte cell lines were from ATCC (Manassas, VA) and were maintained in DMEM supplemented with 10% FCS, 4 mM L-Gln, 1 mM sodium pyruvate, 100 U/mL penicillin, 1 μg/mL streptomycin. Human HK1 and HK2 plasmids were purchased from Addgene (Cambridge, MA) and were purified from E. Coli. VDAC1 was purified from sheep liver mitochondria as described (Arbel et al. 2012, incorporated herein by reference). Human skin tissue microarray (SK208 and SK 805) were purchased from US Biomax Inc. (Rockville, MD).
For XTT assays, cells were plated in 96-well plates (5,000 cells per well) for 24 hours. Cells were then incubated with different concentrations of Formula C in triplicates for 72 hr in DMEM supplemented with 0.5% FCS and 5 mM Glucose. Cell viability was evaluated using 2,3-bis-(2-methoxy-4-nitro-5-sulfophenyl)-2H-tetrazolium-5-carboxanilide (XTT)-based colorimetric assay kit (Biological Industries Ltd., Kibbutz Beit-Haemek, Israel). The optical density was measured by an Infinite 200 ELISA reader at 450 nm and reference was measured at 630 nm (Tecan, Männedorf, Switzerland).

Data set [1] relates to Leukemia (AML) LEXFAM PL-21. Description: CFA, LEXFAM PL-21. In kind it is cell-based, human. Conditions: Cell line/CFA. Here is the method:
(§1) CFA was performed by Charles River Laboratories (Freiburg, Germany) in 96-well plate format according to a modified two-layer soft agar assay. The origin of the tumor xenografts has been described (Fiebig et al. 1989, incorporated herein by reference). The list of tumors used in this study is detailed in Table 1.

Data set [2] has as its system Lung (NSCLC, adeno) LXFA 1041. As to the kind of experiment: CFA, LXFA 1041. In kind it is cell-based, human. The following applies: PDX/CFA. As for the experimental part: as §1
Data set [3] deals with Lung (NSCLC, epidermoid) LXFE 772. As to the kind of experiment: CFA, LXFE 772. Format: cell-based, human. The following applies: PDX/CFA. As for the experimental part:
as §1

The subject of the next data set is Lung (SCLC) LXFS NCI-H82. Description: CFA, LXFS NCI-H82. In kind it is cell-based, human. Conditions: Cell line/CFA. As for the experimental part:
as §1

In the next data set the test system is Lung (SCLC) LXFS 2156. Description: CFA, LXFS 2156. The following applies: PDX/CFA. In kind it is cell-based, human. Here is the method:
as §1

For data set [4], the system named is Lymphoma (Non-Hodgkin) LYXFNH HUT-78. As to the kind of experiment: CFA, LYXFNH HUT-78. In kind it is cell-based, human. Conditions: Cell line/CFA. As for the experimental part:
as §1
The cell lines tested were from a large collection of patient-derived (PDX) and cell line-derived (CDX) human tumor xenografts growing subcutaneously in immunodeficient nude mice (Oncotest GmbH, a Charles River Division). The majority of the xenografts have been directly transplanted from patients and passaged in nude mice. The xenografts retain most of the characteristics of the parental patient tumors including histology and sensitivity to anti-cancer drugs, and efficacy tests in tumor-bearing nude mice largely replicate the response of the donor patient to standard anti-cancer drugs. The cell lines were from publicly available cell lines, including cell lines derived from solid tumors and hematological malignancies. […]
The clonogenic assay was carried out in a 96 well plate format using ultra low attachment plates. […] Cultures were incubated at 37° C. and 7.5% CO2 in a humidified atmosphere for 8 to 14 days and monitored closely for colony growth using an inverted microscope. […]

The subject of data set [5] is Lymphoma (Non-Hodgkin) LYXFNH RAJI. Description: CFA, LYXFNH RAJI. Conditions: Cell line/CFA. In kind it is cell-based, human. Here is the method: as §1
Another data set relates to Breast MAXF 857. Description: CFA, MAXF 857. In kind it is cell-based, human. The following applies: PDX/CFA. As for the experimental part: as §1
For another data set, the system named is Kidney RXF 423. Description: CFA, RXF 423. In kind it is cell-based, human. Conditions: PDX/CFA. Here is the method:
as §1

Data set [6] in a line: Phase 2a in subjects with actinic keratosis, safety. In kind it is in vivo, human. As for the experimental part:
The Phase 2 clinical trial was a multiple-center randomized, double-blind, placebo-controlled, parallel-cohorts study to evaluate the efficacy, safety, tolerability, and pharmacokinetics of once-daily application of topical Formula C ointment (QD 200 mg) for 28 days in subjects with actinic keratosis. Subjects were followed for one or two months after they completed treatment (through day 56 or day 84). The primary and exploratory efficacy endpoints for the study were reduction in the number of lesions on days 56 and 84, respectively. Subjects were randomly assigned in a double-blind fashion to one of three parallel treatment cohorts (5%, or 10% Formula C, or placebo) at a ratio of 1:1:1. To qualify for the study, subjects aged 18 (inclusive) or older must have had 4-8 discrete Grade 1 or 2 AK lesions within a 25-centimeter squared area of the skin of their scalp or face. The study enrolled 93 subjects in the US and Israel.

“And” between values parts separate entries of the source, which are not always exact repeats. Equal values may be shown once.

With `CC/C=C\CC1C(=O)CCC1CC(=O)Oc1cccc2cccnc12` (stereo not drawn) [Formula C], the IC50 – broadly, the concentration that gives 50% inhibition – in the data set on A431 Skin SCC cells is 14 nM; in data set [1] it was 1740 nM; in data set [2], 1500 nM; in data set [3] it was 3780 nM; with Lung (SCLC) LXFS NCI-H82, 1770 nM; in the data set with Lung (SCLC) LXFS 2156, 3560 nM. The IC50 in data set [4] came out at 965 nM; in [5] it was 1380 nM; in the data set on Breast MAXF 857, 1560 nM; with Kidney RXF 423, 1700 nM. Besides, the “serious adverse events (deemed unrelated)” value in data set [6] (5% group) is 1 elective surgery; in data set [6] (10% group), 1 acute pneumonia. Besides, the “treatment-emergent AEs deemed related to the study drug” value in data set [6] (5% group, listed as VDA-1102) is 1 mild dyspepsia and 1 mild hypopigmentation. The “clinically significant changes at application sites (Local Skin Reactions), vital signs, physical examinations, clinical laboratory results, ECGs” value in data set [6] (any subject, any time point) is recorded as “No clinically significant changes”. In [6] (subjects with AK, 5% or 10% ointment QD 28 days), the safety signals entry was “No safety signals”.

(Values after patent publication US12527782B2, “Use of hexokinase 2/mitochondria-detaching compounds for treating hexokinase-2 (HK2)-expressing cancers” (Vidac Pharma Ltd., priority 2016, dated 2026).)
